Eleven compounds from US6774110B2, “Orally available peptidic thrombin inhibitors” (LG Life Sciences Ltd., priority 2001, dated 2004) can be followed below.

This test has as its target T1, thrombin (Homo sapiens, UniProt P00734).
T1 construct: Thrombin used in this test was prepared from human plasma; from tissue; host or cells: human plasma
The test is described as follows: In vitro enzyme assay for determining thrombin inhibition constants (Chromozym TH substrate). In kind it is biochemical. As to conditions: thrombin prepared from human plasma; Dixon plot; pH 7.8; read-out: Inhibition constant Ki. The protocol: The activity of thrombin was measured spectrophotometrically using tosyl-Gly-Pro-Arg-p-nitroanilide acetate (Chromozym TH, Boehringer Mannheim) as a substrate. […] Each compound was dissolved in DMSO to make a 1 mM stock solution and dilutions were made thereof with assay buffer (0.1 M TrisHCl, 0.15 M NaCl, 0.1% polyethylene glycol 8000, pH 7.8). Different concentrations of inhibitor were mixed with 0.3 NIH units of thrombin in 0.8 mL of the buffer. The mixture was incubated for 10 min at room temperature before adding 0.2 mL of the substrate to a final concentration of 20 μM. […] A graph for the reciprocal value of initial velocity to the inhibitor concentration was derived from progress curves by fitting the data using a linear regression program. […]

Structures are written as SMILES. Structures can show the parent of a compound that is named as a salt.

By Ki is commonly meant a measure of affinity in units of concentration, obtained from inhibition or displacement. Regarding `NCc1ccc(CNC(=O)[C@@H]2CCCN2C(=O)[C@H](NS(N)(=O)=O)C(c2ccccc2)c2ccccc2)cc1` [Compound 2, N-aminosulfonyl-D-diphenylalanyl-L-prolyl-[(4-aminomethylphenyl)methyl]amide.HCl], the Ki turned out to be 4200 pM.
For the compound `CP(C)(=O)N[C@@H](C(=O)N1CCC[C@H]1C(=O)NCc1ccc(C(=N)N)cc1)C(c1ccccc1)c1ccccc1` [Compound 44, N-dimethylphosphoryl-D-diphenylalanyl-L-prolyl-[(4-amidinophenyl)methyl]amide.TFA], the inhibition constant Ki stood at 150 pM.
`COC(=O)N[C@@H](C(=O)N1CCC[C@H]1C(=O)NCc1ccc(C(=N)N)c(C)c1)C(c1ccccc1)c1ccccc1` [Compound 37, N-methoxycarbonyl-D-diphenylalanyl-L-prolyl-[(4-amidino-3-methylphenyl)methyl]amide.TFA]: the inhibition constant (Ki) stood at 440 pM.
To `N=C(N)c1ccc(CNC(=O)[C@@H]2CCCN2C(=O)[C@H](NS(N)(=O)=O)C2CCCCC2)cc1` [Compound 6, N-aminosulfonyl-D-cyclohexylglycinyl-L-prolyl-[(4-amidinophenyl)methyl]amide.TFA] belongs 380 pM; to `N=C(N)c1ccc(CNC(=O)[C@@H]2CCCN2C(=O)[C@H](NS(=O)(=O)Cc2ccccc2)C(c2ccccc2)c2ccccc2)cc1` [Compound 41, N-benzylsulfonyl-D-diphenylalanyl-L-prolyl-[(4-amidinophenyl)methyl]amide.TFA], 10 pM.
On to `N=C(N)c1ccc(CNC(=O)[C@@H]2CCN2C(=O)[C@H](NS(N)(=O)=O)C(c2ccccc2)c2ccccc2)cc1` [Compound 5, N-aminosulfonyl-D-diphenylalanyl-L-azetidine-2-carboxyl-[(4-amidinophenyl)methyl]amide.TFA], for which the inhibition constant Ki worked out at 35 pM.
Turning to `NCc1ccc(CNC(=O)[C@@H]2CCCN2C(=O)[C@H](NS(N)(=O)=O)C(c2ccccc2)c2ccccc2)cn1` [Compound 10, N-aminosulfonyl-D-diphenylalanyl-L-prolyl-(6-aminomethyl-3-picolyl)amide], the Ki was found to be 4200 pM.
Turning to `N=C(N)c1ccc(CNC(=O)[C@@H]2CCCN2C(=O)[C@H](NS(N)(=O)=O)C(c2ccccc2)c2ccccc2)c(F)c1` [Compound 16, N-aminosulfonyl-D-diphenylalanyl-L-prolyl-[(4-amidino-2-fluorophenyl)methyl]amide.TFA], the Ki was found to be 16 pM.
On to `N=C(N)c1ncc(CNC(=O)[C@@H]2CCCN2C(=O)[C@H](NS(N)(=O)=O)C(c2ccccc2)c2ccccc2)cn1` [Compound 14, N-aminosulfonyl-D-diphenylalanyl-L-prolyl-[(2-amidino-5-pyrimidyl)methyl]amide.TFA], for which the Ki was determined as 23 pM.
Turning to `N=C(N)c1ccc(CNC(=O)[C@@H]2CCCN2C(=O)[C@H](NS(N)(=O)=O)C(c2ccccc2)c2ccccc2)cc1` [Compound 1, N-aminosulfonyl-D-diphenylalanyl-L-prolyl-[(4-amidinophenyl)methyl]amide.TFA], the inhibition constant (Ki) was 18 pM.
As for `N=C(N)c1ccc(CNC(=O)[C@@H]2CCCN2C(=O)[C@H](NS(N)(=O)=O)C(c2ccccc2)c2ccccc2)cc1N` [Compound 18, N-aminosulfonyl-D-diphenylalanyl-L-prolyl-[(4-amidino-3-aminophenyl)methyl]amide.TFA], the inhibition constant (Ki) is 200 pM.
